Values after ≈ are worked out from the molar mass of the structure shown. Like-named read-outs stand apart in the source and are kept apart here.
What was measured:
Assay type in all cases: cell-based
[1] = test system: Cryptococcus neoformans (13690); test: Broth dilution assay, F3
Experimental: (§1) Both broth dilution and agar dilution assays were used to assess the antifungal activity of the compounds of the invention. The cultures were maintained in Sabouraud dextrose broth (SDB) and diluted with […]. 2.5 l of SDB was prepared and distributed into sterile vessels as follows: 49 ml into 1 vessel, 27 ml into 3 vessels, 45 ml into 2 vessels.
(§2) Five mg/ml concentration of each compound was prepared using DMSO as the solvent; warming and sonication were necessary to dissolve each compound completely. The compounds were then diluted in SDB according to the following protocol:
(§3) 5. 1 ug/ml--5 ml (3)+45 ml SDB
(§4) The compound at each concentration in SDB was then dispensed into 6 tubes each containing 4 ml […]. Controls (without any compound) were also prepared to insure that the solvent itself was not fungicidal or fungistatic.
(§5) Cultures were grown in SDB for 24 h at 30° C. C. albicans and C. neoformans were diluted 1:10 in SDB before inoculation. Inoculation volume for yeasts was 2 drops of diluted cells per tube. The fungal cultures were homogenized before inoculation. The same volume was added, but without dilution. All tubes were incubated at room temperature on a rotating wheel. After 16 h of incubation at room temperature, the fungistatic assay was set up on agar plates. […] Yeasts were inoculated onto SDA (the corresponding agar) plates and fungi onto mycosel agar plates. These plates were then incubated at room temperature.

Candida albicans (10231) = test: Broth dilution assay, F1
Experimental: as §1, §2, §3, §4, §5

Ca. krusei MY1020 = test: Agar dilution assay; conditions: Pichia kudriavzevii, MY1020, 48 h, read-out: Minimum inhibitory concentration
Text: (§6) For the agar dilution assay, the test panel consisted of 18 yeastlike and 3 Filamentus fungii. Four media were used. These were yeast nitrogen base dextrose (0.5% agar) (YNBDA); pH 5.5; YNBDA with pH adjusted to pH 7.5; and micrological agar (MA), pH 7.0; and Sabouraud dextrose agar, pH 5.7. The media was manufactured by Difco (Detroit, MI) and prepared according to the manufacturer's instructions.
(§7) The test compounds were solubilized in 10% aqueous DMSO; the control drug, Nystatin, was solublized in 10% aqueous DMF. The drugs were serially diluted twofold in sterile water to yield concentrations of 1.28 mg/ml to […]. One ml of diluted drug was added to 9 ml of cooled (50° C.) molten agar in plastic petri plates to yield final drug concentrations in the agar ranging from 128 to 0.063 ug/ml. Appropriate solvent and media control plates were prepared as well, and all plates stored in the dark at 4° C. overnight. The yeast cultures, maintained in yeast maltose (YM; Difco), were transferred to fresh YM medium and incubating overnight at 37° C. with shaking at 250 rpm. After incubation each culture was diluted in sterile saline to yield concentrations of 3×10^5 to 3×10^6 cfu/ml. Isolates of aspergillis and penicillium were made on potato dextrose agar slants, and spore suspensions were made following vigorous shaking with sterile glass beads. The spore preparation were used as inocula for these fungi.
(§8) Each prepared place was inoculated with the 21-member panel using a Denleigh multipoint inoculator (Sussex, England). The inoculator delivers approximately 1 ul to the agar surface, resulting in inoculation of from 3×10^2 to 3×10^3 cfu. The plates were incubated at 28° C. for 48 h, and the minimum inhibitory concentrations (MIC) of each drug were recorded as the lower concentration of the drug permitting no growth or growth of less than 3 cfu/spot.

[2] = test system: Cryptococcus neoformans MY1051; test: Agar dilution assay; conditions: MY1051, 48 h
Text: as §6, §7, §8

[3] = test system: Ca. tropicalis MY1012 (Nystatin resistant isolate); test: Agar dilution assay; conditions: Candida tropicalis, 48 h
Text: as §6, §7, §8

Ca. parapsilosis MY1009 = test: Agar dilution assay; conditions: MY1009, 48 h, read-out: Minimum inhibitory concentration
Text: as §6, §7, §8

Ca. stellatoidea MY1017 = test: Agar dilution assay; conditions: Candida albicans, MY1017, 48 h, read-out: Minimum inhibitory concentration
Text: as §6, §7, §8

[4] = test system: Torulopsis glabrata MY1059; test: Agar dilution assay; conditions: Nakaseomyces glabratus, MY1059, 48 h, read-out: Minimum inhibitory concentration
Text: as §6, §7, §8

[5] = test system: Ca. pseudotropicalis MY1040; test: Agar dilution assay; conditions: Kluyveromyces marxianus, MY1040, 48 h, read-out: Minimum inhibitory concentration
Text: as §6, §7, §8

[6] = test system: Aspergillus fumigatus MY4839; test: Agar dilution assay; conditions: MY4839, 48 h
Text: as §6, §7, §8

[7] = test system: Penicillium italicum MF2819; test: Agar dilution assay; conditions: MF2819, 48 h
Text: as §6, §7, §8

Candida albicans MY1058 = test: Agar dilution assay; conditions: MY1058, 48 h
Text: as §6, §7, §8

Sac. cerevisiae MY1027 = test: Agar dilution assay; conditions: Saccharomyces cerevisiae, MY1027, 48 h, read-out: Minimum inhibitory concentration
Text: as §6, §7, §8

[8] = MA pH 7.0, read-out: Minimum inhibitory concentration
[9] = SDA pH 5.7, read-out: Minimum inhibitory concentration
[10] = YNBDA pH 5.5, read-out: Minimum inhibitory concentration
[11] = YNBDA pH 7.5, read-out: Minimum inhibitory concentration

**Q.** Which results are given for `CCCCCCCCc1ccc2nc(N)nc(N)c2c1C` [2,4-Diamino-5-methyl-6-n-octylquinazoline]?
**A.** MFC ([1]; Table 2, F3, Sabouraud Dextrose Broth pH 5.5, read-out: C Fungicidal): 3 µg/mL (≈ 10.5 µM); MIC ([1]; Table 2, F3, Sabouraud Dextrose Broth pH 5.5, read-out: S Fungistatic): 3 µg/mL (≈ 10.5 µM); MFC (Candida albicans (10231); Table 2, F1, Sabouraud Dextrose Broth pH 5.5, read-out: C Fungicidal): 100 µg/mL (≈ 349 µM); MIC (Candida albicans (10231); Table 2, F1, Sabouraud Dextrose Broth pH 5.5, read-out: S Fungistatic): 10 µg/mL (≈ 34.9 µM); MIC (Ca. krusei MY1020; MA pH 7.0): 8 µg/mL (≈ 27.9 µM); MIC (Ca. krusei MY1020; SDA pH 5.7): > 128 µg/mL; MIC (Ca. krusei MY1020; YNBDA pH 5.5): > 128 µg/mL; MIC (Ca. krusei MY1020; YNBDA pH 7.5): 8 µg/mL (≈ 27.9 µM); MIC [2, 8]: 4 µg/mL (≈ 14 µM); MIC [2, 9]: 16 µg/mL (≈ 55.9 µM); MIC [2, 10]: 128 µg/mL (≈ 447 µM); MIC [2, 11]: 8 µg/mL (≈ 27.9 µM); MIC ([3]; pH 5.5, read-out: Minimum inhibitory concentration): 4 µg/mL (≈ 14 µM); MIC ([3]; pH 5.7, read-out: Minimum inhibitory concentration): 2 µg/mL (≈ 6.98 µM); MIC ([3]; pH 7, read-out: Minimum inhibitory concentration): 2 µg/mL (≈ 6.98 µM); MIC ([3]; pH 7.5, read-out: Minimum inhibitory concentration): 4 µg/mL (≈ 14 µM); MIC (Ca. parapsilosis MY1009; MA pH 7.0): 8 µg/mL (≈ 27.9 µM); MIC (Ca. parapsilosis MY1009; SDA pH 5.7): > 128 µg/mL; MIC (Ca. parapsilosis MY1009; YNBDA pH 5.5): > 128 µg/mL; MIC (Ca. parapsilosis MY1009; YNBDA pH 7.5): 16 µg/mL (≈ 55.9 µM); MIC (Ca. stellatoidea MY1017; MA pH 7.0): 16 µg/mL (≈ 55.9 µM); MIC (Ca. stellatoidea MY1017; SDA pH 5.7): 128 µg/mL (≈ 447 µM); MIC (Ca. stellatoidea MY1017; YNBDA pH 5.5): > 128 µg/mL; MIC (Ca. stellatoidea MY1017; YNBDA pH 7.5): 16 µg/mL (≈ 55.9 µM); MIC ([4]; MA pH 7.0): 16 µg/mL (≈ 55.9 µM); MIC ([4]; SDA pH 5.7): > 128 µg/mL; MIC ([4]; YNBDA pH 5.5): > 128 µg/mL; MIC ([4]; YNBDA pH 7.5): 8 µg/mL (≈ 27.9 µM); MIC ([5]; MA pH 7.0): 4 µg/mL (≈ 14 µM); MIC ([5]; SDA pH 5.7): 128 µg/mL (≈ 447 µM); MIC ([5]; YNBDA pH 5.5): 128 µg/mL (≈ 447 µM); MIC ([5]; YNBDA pH 7.5): 4 µg/mL (≈ 14 µM); MIC [6, 8]: 64 µg/mL (≈ 223 µM); MIC [6, 9]: > 128 µg/mL; MIC [6, 10]: > 128 µg/mL; MIC [6, 11]: 32 µg/mL (≈ 112 µM); MIC [7, 8]: 4 µg/mL (≈ 14 µM); MIC [7, 9]: 64 µg/mL (≈ 223 µM); MIC [7, 10]: 128 µg/mL (≈ 447 µM); MIC [7, 11]: 8 µg/mL (≈ 27.9 µM); MIC (Candida albicans MY1058; [8]): 16 µg/mL (≈ 55.9 µM); MIC (Candida albicans MY1058; [9]): > 128 µg/mL; MIC (Candida albicans MY1058; [10]): > 128 µg/mL; MIC (Candida albicans MY1058; [11]): 32 µg/mL (≈ 112 µM); MIC (Sac. cerevisiae MY1027; MA pH 7.0): 4 µg/mL (≈ 14 µM); MIC (Sac. cerevisiae MY1027; SDA pH 5.7): 128 µg/mL (≈ 447 µM); MIC (Sac. cerevisiae MY1027; YNBDA pH 5.5): > 128 µg/mL; MIC (Sac. cerevisiae MY1027; YNBDA pH 7.5): 4 µg/mL (≈ 14 µM)
